SMILES strings stand for the structures. pIC50: −log10 of the molar value. A value given as a limit tells only on which side of the number the result lay.

The test system of series [1] is Hemozoin. In words: Inhibition of beta-hematin formation assessed as reduction in hemozoin formation incubated for 16 hrs by NP40 detergent-mediated assay.
The test system of another series is CHO. Kind of series: Cytotoxicity against CHO cells measured after 48 hrs by MTT assay. Type of series: cell-based. To be noted: Cricetulus griseus.
Series [2] concerns Plasmodium falciparum. Kind of series: Antiplasmodial activity against chloroquine-sensitive asexual blood stage of Plasmodium falciparum NF54 by LDH assay. Type of series: functional, organism-based.
Series [3] deals with Plasmodium falciparum. Kind of series: Antiplasmodial activity against chloroquine-resistant asexual blood stage of Plasmodium falciparum K1 by LDH assay. The format is functional, organism-based.
Series [4] in a line: Resistance index, ratio of IC50 for chloroquine-resistant asexual blood stage of Plasmodium falciparum K1 to IC50 for chloroquine-sensitive asexual blood stage of Plasmodium falciparum NF54. Type of series: functional.
Series [5] in a line: Selectivity index, ratio of IC50 for CHO cells to IC50 for chloroquine-sensitive asexual blood stage of Plasmodium falciparum NF54. The format is toxicity. To be noted: hamster, read-out: Ratio IC50.
The nature of series [6]: Selectivity index, ratio of IC50 for CHO cells to IC50 for chloroquine-resistant asexual blood stage of Plasmodium falciparum K1. Type of series: toxicity. The conditions noted are these: hamster, read-out: Ratio IC50.
Series [7] has as its system Mycobacterium tuberculosis. Kind of series: Antimycobacterial activity against Mycobacterium tuberculosis H37Rv after 14 days in presence of middlebrook 7H9/ADC medium by broth microdilution method. The format is functional. To be noted: 336 h. (In general: Dilution methods test growth across graded concentrations, often in twofold steps.)
The subject of series [8] is Mycobacterium tuberculosis. In words: Antimycobacterial activity against Mycobacterium tuberculosis H37Rv after 14 days in presence of middlebrook 7H9/CAS medium by broth microdilution method. Type of series: functional. To be noted: 336 h.
For series [9], the system named is Mycobacterium tuberculosis. Kind of series: Antimycobacterial activity against Mycobacterium tuberculosis H37Rv after 7 days in presence of middlebrook 7H9/ADC medium by microplate alamar blue assay. The format is functional. To be noted: 168 h. On the technique in general: The colour change of resazurin is a common sign of viable cells or microbes.
The subject of series [10] is Mycobacterium tuberculosis. Kind of series: Antimycobacterial activity against Mycobacterium tuberculosis H37Rv after 7 days in presence of middlebrook 7H9/CAS medium by microplate alamar blue assay. The format is functional. The conditions noted are these: 168 h.
The subject of series [11] is Hemozoin. In words: Potency index, ratio of chloroquine IC50 to compound IC50 for inhibition of beta-hematin assessed as hemozoin formation.
For series [12], the system named is Plasmodium berghei. In words: Antimalarial activity against GFP-transfected Plasmodium berghei ANKA infected mouse assessed as reduction in parasitemia at 50 mg/kg, po consecutively at 4, 24, 48 and 72 hrs post infection by flow cytometry relative to control. The format is functional.
The subject of series [13] is Plasmodium berghei. In words: Antimalarial activity against GFP-transfected Plasmodium berghei ANKA infected in mouse assessed as mean survival days at 50 mg/kg, po administered consecutively at 4, 24, 48 and 72 hrs post infection. Type of series: functional.

As a reminder, the pIC50 is −log10 of the IC50, conventionally taken in molar units. As to `CCN(CC)CCCC(C)Nc1ccnc2cc(Cl)ccc12` (centres undefined) [CHLOROQUINE], the pIC50 in the series on Hemozoin [1] was 4.13.

One may read the MIC90 as the lowest concentration that inhibits either 90% of growth or 90% of the strains tested, depending on the study. As to `N#Cc1ccc2c(c1)nc(-c1ccccc1)n2CCCNc1ccnc2cc(Cl)ccc12`, the values for the pIC50 in the series with CHO, in the series on Plasmodium falciparum [2] and in the series on Plasmodium falciparum [3] were 4.41, 6.01 and 6.75, respectively. Moreover, the Ratio IC50 in [4] is 0.183. Further, the selectivity ratio in [5] turned out to be 39.9; in series [6], 217. Also, the MIC90 was above 125 µM in series [7], 62.5 µM in series [8], above 62.5 µM in [9] and above 125 µM in series [10].

For `CC[C@H]1CN2CCc3cc(OC)c(OC)cc3[C@@H]2C[C@@H]1C[C@H]1NCCc2cc(OC)c(OC)cc21` [EMETINE], the negative logarithm of the IC50 (pIC50) with CHO was 7.79.

For the compound `CO[C@H]1/C=C/O[C@@]2(C)Oc3c(C)c(O)c4c(O)c(c(/C=N/N5CCN(C)CC5)c(O)c4c3C2=O)NC(=O)/C(C)=C\C=C\[C@H](C)[C@H](O)[C@@H](C)[C@@H](O)[C@@H](C)[C@H](OC(C)=O)[C@@H]1C` [RIFAMPIN], the MIC90 in series [7] worked out at 0.018 µM; in series [8], 0.018 µM; in [9], 0.0156 µM; in [10], 0.0217 µM.

The term inhibition in vivo denotes how much of the control response was suppressed. Regarding `FC(F)(F)c1ccc2c(c1)nc(-c1ccccc1)n2CCCNc1ccnc2cc(Cl)ccc12`, the pIC50 was 4.79 with CHO, 6.37 in the series with Plasmodium falciparum [2], 6.82 in the series with Plasmodium falciparum [3] and 4.80 in the series on Hemozoin [1]. Also, the Ratio IC50 in [4] turned out to be 0.35; with Hemozoin [11], 4. Further, the selectivity ratio in series [5] was determined as 37.5; in [6], 107. In addition, the inhibition in vivo at 50 mg/kg in the series on Plasmodium berghei [12] came out at 58%. Also, in the series with Plasmodium berghei [13], the MSD turned out to be 7 days. Further, the MIC90 in series [7] turned out to be 62.5 µM; in series [8], 15.6 µM; in series [9] it was 89.1 µM; in series [10], 15.8 µM.

As to `Cc1ccc2c(c1)nc(-c1ccccc1)n2CCCNc1ccnc2cc(Cl)ccc12`, the pIC50 is below 4.30 in the series with CHO, 6.11 with Plasmodium falciparum [2] and 6.34 in the series with Plasmodium falciparum [3]. Besides, the Ratio IC50 in [4] was found to be 0.583. Further, the MIC90 is 125 µM in series [7], 31.2 µM in series [8], above 62.5 µM in series [9] and 32.7 µM in series [10].

`C[C@H]1[C@H](OC(=O)CCC(=O)O)O[C@@H]2O[C@@]3(C)CC[C@H]4[C@H](C)CC[C@@H]1[C@@]24OO3` [ARTESUNATE] had a negative-log IC50 (pIC50) in the series with Plasmodium falciparum [2] of 8.01.

As to `CS(=O)(=O)c1ccc2c(c1)nc(-c1ccccc1)n2CCCNc1ccnc2cc(Cl)ccc12`, the pIC50 in the series on CHO is 4.39; in the series with Plasmodium falciparum [2] it was 6.25; in the series with Plasmodium falciparum [3], 5.74. The Ratio IC50 in series [4] came to 3.28. For the same compound, the selectivity ratio worked out at 73.2 in [5] and 22.4 in [6]. Besides, the MIC90 in [7] is above 125 µM; in series [8] it was 125 µM; in series [9] it was above 62.5 µM; in series [10], above 125 µM.

Consider `Clc1ccc2c(NCCCn3c(-c4ccccc4)nc4ccccc43)ccnc2c1`, for which the pIC50 is 4.38 with CHO, 5.26 with Plasmodium falciparum [2] and 6.70 in the series with Plasmodium falciparum [3]. Further, in series [4], the Ratio IC50 is 0.0362. Moreover, the selectivity ratio in series [5] stood at 7.57; in [6], 209. Moreover, the MIC90 came out at 125 µM in [7], 62.5 µM in series [8], 38.8 µM in series [9] and 50.6 µM in [10].

Source of the values: ChEMBL document CHEMBL4359849, “Bioisosteric ferrocenyl aminoquinoline-benzimidazole hybrids: Antimicrobial evaluation and mechanistic insights” (Eur J Med Chem, 2019).
